Data on 15 compounds can be found in ChEMBL document CHEMBL4190243, “Natural alkaloids as P-gp inhibitors for multidrug resistance reversal in cancer” (Eur J Med Chem, 2017).

The term pIC50 denotes the IC50 on a negative log10 scale, so that one unit is a factor of ten. By pEC50 is commonly meant the negative decadic logarithm of the EC50, by convention in mol/L.

Assay [1] in a line: Inhibition of P-gp in human Caco2 cells assessed as reduction in accumulation of calcein-AM preincubated for 30 mins followed by Rh123 addition measured after 90 mins by fluorescence spectrofluorometric method. The class given is cell-based. The conditions noted are these: Caco-2.
The species entered for assay [2] is Homo sapiens. The assay is described as follows: Inhibition of P-gp in human CEM/DOX5000 cells assessed as potentiation of doxorubicin-induced cytotoxicity by measuring fold reduction in doxorubicin IC50. The class given is cell-based.
The species named for assay [3] is Homo sapiens. The assay is described as follows: Inhibition of P-gp in human Caco2 cells assessed as potentiation of doxorubicin-induced cytotoxicity by measuring fold reduction in doxorubicin IC50. It is filed as cell-based.
Assay [4] in a line: Inhibition of P-gp in human Caco2 cells assessed as reduction in accumulation of Rh123 preincubated for 30 mins followed by Rh123 addition measured after 90 mins by fluorescence spectrofluorometric method. It is filed as cell-based. As to conditions: Caco-2.
For assay [5], the species on record is Homo sapiens. The assay is described as follows: Inhibition of P-gp in human KB/VCR cells assessed as potentiation of vincristine-induced cytotoxicity by measuring fold reduction in vincristine IC50. It is filed as cell-based.
The species entered for assay [6] is Homo sapiens. The assay is described as follows: Inhibition of P-gp in human KBV1 cells assessed as potentiation of vinblastine-induced cytotoxicity by measuring fold reduction in vinblastine IC50 at 50 uM. It is filed as cell-based.
Assay [7] is described as follows: Inhibition of P-gp in human HCT116/VM46 cells assessed as potentiation of paclitaxel-induced cytotoxicity. The class given is cell-based. The conditions noted are these: HCT-116/VM46.
The nature of assay [8]: Inhibition of P-gp in human MCF7/DX1 cells assessed as […] Rh123 accumulation after 30 mins by FACS analysis. The conditions noted are these: MCF7/DX1, 0.5 h. It is filed as cell-based. (Flow cytometry measures light scatter and fluorescence of single cells or particles in a stream.)
Assay [9] is described as follows: Inhibition of P-gp in human MCF7/DX1 cells assessed as […] [3H]paclitaxel accumulation after 40 mins by scintillation counting method. The class given is cell-based.
The species named for assay [10] is Homo sapiens. As to the kind of experiment: Inhibition of P-gp in human HCT116/VM46 cells assessed as potentiation of doxorubicin-induced cytotoxicity by measuring fold reduction in doxorubicin IC50. It is filed as cell-based.
The species entered for assay [11] is Homo sapiens. As to the kind of experiment: Inhibition of P-gp in human HCT116/VM46 cells assessed as potentiation of vinblastine-induced cytotoxicity by measuring fold reduction in vinblastine IC50. The class given is cell-based.
Assay [12] is filed under the species Homo sapiens. The assay is described as follows: Inhibition of P-gp in human CCRF-CEM/VLB100 cells assessed as potentiation of vinblastine-induced cytotoxicity by measuring fold reduction in vinblastine IC50.
The species entered for assay [13] is Mus musculus. As to the kind of experiment: Inhibition of P-gp in mouse P388/DOX cells assessed as potentiation of doxorubicin-induced cytotoxicity by measuring fold reduction in doxorubicin IC50. The class given is cell-based.
The species entered for assay [14] is Homo sapiens. As to the kind of experiment: Inhibition of P-gp in human SW620/AD300 cells assessed as potentiation of taxol-induced cytotoxicity by measuring fold reduction in taxol IC50. The class given is cell-based.
The species entered for assay [15] is Homo sapiens. The assay is described as follows: Inhibition of P-gp in human K562/DOX cells assessed as potentiation of doxorubicin-induced cytotoxicity by measuring fold reduction in doxorubicin IC50 at 5 uM. The class given is cell-based.
For assay [16], the species on record is Homo sapiens. As to the kind of experiment: Inhibition of P-gp in human A549/DDP cells assessed as potentiation of […]-induced cytotoxicity by measuring fold reduction in doxorubicin IC50 at 5 uM. The class given is cell-based.
For assay [17], the species on record is Homo sapiens. The assay is described as follows: Inhibition of P-gp in human A549/DDP cells assessed as potentiation of doxorubicin-induced cytotoxicity by measuring fold reduction in doxorubicin IC50 at 5 uM. It is filed as cell-based.
Assay [18] has as its system K562/A02. As to the kind of experiment: Inhibition of P-gp in human K562/A02 cells assessed as potentiation of doxorubicin-induced cytotoxicity by measuring fold reduction in doxorubicin IC50 at 5 uM. It is filed as cell-based.
Assay [19] is filed under the species Homo sapiens. The assay is described as follows: Inhibition of P-gp in human MCF7/DOX cells assessed as potentiation of doxorubicin-induced cytotoxicity by measuring fold reduction in doxorubicin IC50 at 5 uM. The class given is cell-based.
The species entered for assay [20] is Homo sapiens. The assay is described as follows: Inhibition of P-gp in human KB/VCR cells assessed as potentiation of vincristine-induced cytotoxicity by measuring fold reduction in vincristine IC50 at 5 uM. It is filed as cell-based.
The subject of assay [21] is K562/A02. As to the kind of experiment: Inhibition of P-gp in human K562/A02 cells assessed as potentiation of doxorubicin-induced cytotoxicity by measuring fold reduction in doxorubicin IC50. It is filed as cell-based.
The species entered for assay [22] is Homo sapiens. As to the kind of experiment: Inhibition of P-gp in human lung cancer cells assessed as potentiation of doxorubicin-induced cytotoxicity by measuring fold reduction in doxorubicin IC50. It is filed as cell-based.
The species named for assay [23] is Homo sapiens. As to the kind of experiment: Inhibition of MRP in P-gp null human lung cancer cells assessed as potentiation of doxorubicin-induced cytotoxicity by measuring fold reduction in doxorubicin IC50.
The species entered for assay [24] is Homo sapiens. The assay is described as follows: Inhibition of MRP in human lung cancer cells assessed as potentiation of doxorubicin-induced cytotoxicity by measuring fold reduction in doxorubicin IC50. It is filed as cell-based.
Assay [25] is filed under the species Homo sapiens. As to the kind of experiment: Inhibition of P-gp in human KBV1 cells assessed as potentiation of vinblastine-induced cytotoxicity by measuring fold reduction in vinblastine IC50 at 5 uM. The class given is cell-based.
The species named for assay [26] is Homo sapiens. The assay is described as follows: Inhibition of P-gp in human KBV1 cells assessed as potentiation of doxorubicin-induced cytotoxicity by measuring fold reduction in doxorubicin IC50 at 5 uM. The class given is cell-based.
The species entered for assay [27] is Homo sapiens. The assay is described as follows: Inhibition of P-gp in human KBV1 cells assessed as potentiation of paclitaxel-induced cytotoxicity by measuring fold reduction in paclitaxel IC50 at 5 uM. The class given is cell-based.
For assay [28], the species on record is Homo sapiens. The assay is described as follows: Inhibition of P-gp in human CCRF-CEM/VLB100 cells assessed as potentiation of vincristine-induced cytotoxicity by measuring fold reduction in vincristine IC50.
For assay [29], the species on record is Homo sapiens. As to the kind of experiment: Inhibition of P-gp in human A549/PA cells assessed as synergistic cytotoxicity with paclitaxel after 48 hrs by SRB assay. The class given is cell-based.
The species named for assay [30] is Homo sapiens. As to the kind of experiment: Inhibition of P-gp in human MCF7/DOX cells assessed as potentiation of doxorubicin-induced cytotoxicity by measuring doxorubicin ED50. It is filed as cell-based.

pEC50, pIC50: −log10 of the molar value.

For `CN1Cc2c(ccc3c2OCO3)C2C(O)Cc3cc4c(cc3C21)OCO4` (stereo not drawn) [CHELIDONINE (+)], the pIC50 in [1] was 4.96; in assay [4] it was 5.05. Also, the fold change (FC) in assay [2] was found to be 3; in assay [3] it was 6.

For `CC[C@]12CCCN[C@]13/C(=C\C(=O)OC)c1ccccc1N3C(=O)CC2`, in [5], the fold change (FC) was 4.7.

`COC1=C(C)C(=O)O/C1=C1\O[C@@]23CCCN4CCC[C@@H](O2)[C@H]4[C@H]3[C@@H]1C`: the fold change (FC) in assay [6] worked out at 4.

Turning to `COc1ccc(C2=C(c3ccc(OC)c(OC)c3)C(=O)N(CCc3cc(Br)c(OCc4ccccc4)c(OCCN4CCOCC4)c3)C2=O)cc1OC`, in assay [7], the pEC50 is 6.37.

Consider `C=C[C@H]1CN2CC[C@H]1C[C@@H]2[C@@H](OC(=O)CCCCCCCC(=O)O[C@@H](c1ccnc2ccc(OC)cc12)[C@H]1C[C@@H]2CCN1C[C@@H]2C=C)c1ccnc2ccc(OC)cc12`, for which the pIC50 in assay [8] is 5.77; in [9], 5.70.

On to `COc1ccc(CCn2cc(-c3ccc(OC)c(OC)c3)c3c4cc(OC)c(OC)cc4oc(=O)c32)cc1OC`, for which the fold change (FC) is 350 in assay [10], 35 in assay [11], 6.2 in assay [12] and 350 in assay [13].

For `C=C/C=C\[C@H](C)[C@H](OC(N)=O)[C@@H](C)[C@H](O)[C@@H](C)C/C(C)=C\[C@H](C)[C@@H](O)[C@@H](C)/C=C\[C@@H](O)C[C@@H]1OC(=O)[C@H](C)[C@@H](O)[C@H]1C`, in assay [14], the fold change (FC) is 4.

For the compound `C=CC(C)(C)[C@]12c3ccccc3N(C(C)=O)[C@H]1N1C(=O)[C@@H](C)n3c(nc4ccccc4c3=O)[C@@H]1C2O` (stereo not given in full), the fold change (FC) stood at 5 in [15], 8 in assay [16] and 8 in assay [17].

For `CO[C@@]1(C)N(C/C=C/c2ccccc2)C(=O)C2=C[C@@]3(C(=O)N(C)c4ccccc43)C(=O)N21`, the fold change (FC) is 16 in [18], 42 in assay [19] and 10 in [20].

Regarding `CCCCCC(CC(C)=O)n1cnc2c(N)ncnc21` (stereo not given), in [21], the fold change (FC) fell in the range of 1.5 to 2.7.

With `C=CC(C)(C)[C@@]12C[C@H]3c4nc5ccccc5c(=O)n4CC(=O)N3[C@@H]1N(C(C)=O)c1ccccc12`, the results for the fold change (FC) in assay [22], in assay [23] and in assay [24] were 200, 15 and 66, respectively.

Consider `CCCC[C@@]12[C@@H]3C[C@H]4[C@H]5[C@H](C)/C(=C6/OC(=O)C(C)=C6OC)O[C@]5(O3)[C@@H]1CCN42`, for which the fold change (FC) was 5 in assay [25], 4 to 5 in [26] and 7 in assay [27].

`C=CC(C)(C)[C@@]12C[C@H]3c4nc5ccccc5c(=O)n4[C@H](C)C(=O)N3[C@@H]1N(C(C)=O)c1ccccc12`: the fold change (FC) in assay [28] was determined as 700.

For the compound `COc1ccc2c3c(c4cc(OC)c(OC)cc4c2c1)C[C@H]1CCCN1C3`, in assay [29], the CI was 0.45.

`CC(/C=C/C#C/C=C/C=C(\C)C(=O)N[C@@H](C)CO)=C\[C@@H](C)[C@@H](O)/C(C)=C/[C@@H](C)CCc1ccccc1`: in assay [30], the ED50 came out at 0.2 nM.
